Structures can show the parent of a compound that is named as a salt.
Experiments:
[1] = Excitation and fluorescence signal attenuation through tissue versus depth of artery (FIG. 2); assay type: physicochemical; conditions: FIG. 2 curve 38
Text: (§1) Looking to the ICG dye spectrum, an excitation curve is shown at 34, having a peak excitation wavelength at about 785 nanometers. Correspondingly, the fluorescence emission from excitation at curve 34 is represented at curve 36 with a peak emission wavelength of about 830 nanometers. Directed across FIG. 2 is a curve 38 representing the level of constant signal attenuation or absorption of about 37% resulting from passage of signal through tissue. Note that if a blood vessel is about one millimeter beneath the surface of skin, the system would perform at about 37% of the original intensity of the excitation signal and fluorescence signal for the case of ICG dye indicator. In contrast, a 37% decrease in excitation and emission signal level would result for the fluorescein dye indicator at a tissue thickness of only 0.25 mm. Since the blood vessels being targeted are at least 1 mm below the skin surface, the attenuation and associated signal loss would be much larger. Therefore, ICG dye is the preferred indicator.
Turning again to the ICG dye spectrum, note that the excitation signal 34 for ICG intersects curve 38 at a depth allowing for readily reaching blood vessels, for example within the pinna (e.g., scaphoid fossa) of the ear. Accordingly, ICG dye is usable as a circulatory tracking agent when detecting through skin, and ICG dye was the indicator elected for subsequent study.

[2] = Excitation and fluorescence emission wavelengths of the dyes (FIG. 2); assay type: physicochemical
Text: Looking to FIG. 2 in this regard, the excitation signal for fluorescein dye is represented at curve 30 which is an excitation signal at less than about 500 nanometers (nm). A resultant fluorescence emission from the excitation at 30 is shown at curve 32, at a wavelength of about 525 nm.
as §1
When an ICG indicator within the bloodstream reaches the site of irradiation with 785 nm (laser) light, the fluorescent moiety within the ICG indicator is excited as described in connection with FIG. 2 to an elevated energy state for a brief period. As the excited moiety returns to its normal energy state, it emits light at a longer wavelength (viz., 830 nm) and the difference between the excitation wavelength (viz., 785 nm) and the fluorescence emission wavelength (viz., 830 nm) is known as the Stokes Shift. This Stokes Shift of nominally 45 nm allows the fluoresce emission to be extracted by using a interferential or other type of optical filter to reflect or otherwise attenuate all but the wavelength band of interest (viz., 820 to 840 nm).

tissue depth at constant signal attenuation of about 37% [1]: about one | excitation wavelength ([2]; FIG. 2): about 785 nm | fluorescence emission wavelength ([2]; FIG. 2): about 830 nm | Stokes Shift ([2]; difference between excitation and fluorescence emission wavelength): ~45 nm
SMILES: CC1(C)C(/C=C/C=C/C=C/C=C2\N(CCCCS(=O)(=O)O)c3ccc4ccccc4c3C2(C)C)=[N+](CCCCS(=O)(=O)[O-])c2ccc3ccccc3c21 [ICG, 2-[7-[1,1-dimethyl-3-(4-sulfobutyl)benz[e]indolin-2-ylidene]-1,3,5-heptatrienyl]-1,1-dimethyl-3-(4-sulfobutyl)-1H-benz[e]indolium hydroxide, inner salt, sodium salt]

Reference: patent US20140128733A1, “SYSTEMS AND METHODS FOR HEMODYNAMIC DETECTION OF CIRCULATORY ANOMALIES” (Cardiox Corporation, priority 2008, published 2014)
